Laboratory results published in patent EP4740948A1 (Dong Wha Pharm. Co., Ltd., priority 2023, dated 2025).

Experiments:
EZH1 = EZH1 (Homo sapiens, UniProt Q92800); assay: AlphaLISA enzyme activity inhibition, EZH1; type: biochemical; settings: for inhibition at 0.005 µM: 5nM test substance; for inhibition at 0.01 µM: 10nM test substance
Protocol: (§1) In order to confirm the EZH1 and/or EZH2 activity inhibitory effect of the 1,3-benzodioxole derivative compounds represented by chemical formula I of the present invention, the activity was measured using an AlphaLISA test method. The test substance dissolved in dimethylsulfoxide (DMSO) was diluted in a test solution (20 mM Tris pH 8.0, 0.1% BSA, 0.01% Triton X-100, 0.5 mM DTT) according to a final treatment concentration (5 nM or 10 nM) and mixed with EZH1 and EZH2, respectively, and then histone H3 peptide and S-adenosylmethionine (SAM) were added to initiate an enzyme reaction. An acceptor bead was added thereto after reaction for two hours and subjected to an additional reaction for one hour, after which a donor bead was added thereto. After an additional reaction for 30 minutes, the reaction was completed. An activity was measured using the Magellan program on a Spark10M instrument. DMSO was used as a control group, an inhibition rate of enzyme activity was calculated using a following equation, and the results thereof are shown in Table 1 below. [formula]

EZH2 = EZH2 (Homo sapiens, UniProt Q15910); assay: AlphaLISA enzyme activity inhibition, EZH2; type: biochemical; settings: for inhibition at 0.005 µM: 5nM test substance; for inhibition at 0.01 µM: 10nM test substance
EZH2, sequence (Q15910 whole entry, species assumed): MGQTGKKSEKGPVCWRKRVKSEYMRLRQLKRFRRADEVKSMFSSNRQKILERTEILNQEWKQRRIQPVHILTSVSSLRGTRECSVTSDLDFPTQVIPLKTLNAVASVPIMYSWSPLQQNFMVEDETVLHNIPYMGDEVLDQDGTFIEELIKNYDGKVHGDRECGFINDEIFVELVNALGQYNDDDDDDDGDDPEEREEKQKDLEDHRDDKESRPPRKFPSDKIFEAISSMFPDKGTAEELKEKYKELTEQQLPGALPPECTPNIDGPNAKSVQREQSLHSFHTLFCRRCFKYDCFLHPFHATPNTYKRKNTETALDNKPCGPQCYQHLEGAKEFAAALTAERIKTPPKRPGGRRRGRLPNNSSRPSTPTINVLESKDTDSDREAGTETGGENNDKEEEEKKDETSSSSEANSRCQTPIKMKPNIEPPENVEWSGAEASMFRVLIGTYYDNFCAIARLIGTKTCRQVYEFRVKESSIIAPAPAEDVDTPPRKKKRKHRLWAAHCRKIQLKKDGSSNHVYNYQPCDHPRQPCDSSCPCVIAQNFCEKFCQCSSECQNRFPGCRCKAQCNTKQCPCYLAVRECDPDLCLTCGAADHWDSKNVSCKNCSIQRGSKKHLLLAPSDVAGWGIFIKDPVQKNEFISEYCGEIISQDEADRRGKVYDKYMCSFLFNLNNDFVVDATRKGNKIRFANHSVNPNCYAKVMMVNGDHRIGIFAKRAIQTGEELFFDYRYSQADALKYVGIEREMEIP
EZH2, sequence (O75530 whole entry partner, species assumed): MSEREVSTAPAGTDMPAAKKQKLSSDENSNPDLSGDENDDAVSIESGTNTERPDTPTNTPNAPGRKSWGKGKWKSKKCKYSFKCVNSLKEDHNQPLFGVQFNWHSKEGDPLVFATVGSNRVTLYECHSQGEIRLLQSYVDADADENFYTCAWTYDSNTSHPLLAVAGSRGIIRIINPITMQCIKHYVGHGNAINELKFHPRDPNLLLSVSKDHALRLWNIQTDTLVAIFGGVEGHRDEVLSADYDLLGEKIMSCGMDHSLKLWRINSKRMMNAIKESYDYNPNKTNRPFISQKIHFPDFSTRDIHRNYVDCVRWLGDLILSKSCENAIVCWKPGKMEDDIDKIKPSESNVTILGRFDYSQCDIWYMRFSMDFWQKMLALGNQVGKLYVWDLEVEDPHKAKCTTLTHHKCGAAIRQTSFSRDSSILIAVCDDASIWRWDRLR
EZH2, sequence (Q15022 whole entry partner, species assumed): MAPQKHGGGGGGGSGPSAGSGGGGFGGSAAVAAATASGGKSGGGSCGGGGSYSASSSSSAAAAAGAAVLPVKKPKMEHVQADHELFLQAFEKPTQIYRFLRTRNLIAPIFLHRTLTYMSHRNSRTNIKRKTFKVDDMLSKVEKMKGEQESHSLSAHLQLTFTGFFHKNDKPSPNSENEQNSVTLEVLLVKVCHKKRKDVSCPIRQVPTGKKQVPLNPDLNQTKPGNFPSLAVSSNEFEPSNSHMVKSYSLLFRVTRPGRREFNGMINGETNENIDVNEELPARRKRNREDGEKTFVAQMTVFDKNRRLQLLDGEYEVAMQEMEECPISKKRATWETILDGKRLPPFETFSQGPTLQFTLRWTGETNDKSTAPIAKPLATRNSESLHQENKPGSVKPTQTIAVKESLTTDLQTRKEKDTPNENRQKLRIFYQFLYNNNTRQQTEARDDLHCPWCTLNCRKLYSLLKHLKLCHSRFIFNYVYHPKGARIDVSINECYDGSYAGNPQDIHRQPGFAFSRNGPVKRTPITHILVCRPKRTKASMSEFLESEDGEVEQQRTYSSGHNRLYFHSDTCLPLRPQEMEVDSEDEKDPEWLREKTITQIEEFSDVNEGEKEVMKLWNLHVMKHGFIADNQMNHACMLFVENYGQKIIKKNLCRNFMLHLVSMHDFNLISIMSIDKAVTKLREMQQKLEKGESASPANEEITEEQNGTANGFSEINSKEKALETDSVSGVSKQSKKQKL
Protocol: as §1

Lovo cells = assay: Cancer cell proliferation inhibition (Cell Counting Kit-8), colorectal cancer cell line; type: cell-based; settings: 1000 nM, cultured seven to 11 days; for inhibition at 1 µM: Homo sapiens, LoVo, 264 h, read-out: % inhibition rate LoVo; for % inhibition rate LoVo: 1 µM
Procedure, shortened: (§2)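 Single-concentration test: 1000 nM compound, 7-11 day culture after seeding 100 to 1,000 cells per well in 10% FBS medium. Percent inhibition derived from Cell Counting Kit-8 signal relative to untreated control.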

G401 cells = assay: Cancer cell proliferation inhibition (Cell Counting Kit-8), rhabdoid tumor cell line; type: cell-based; settings: 1000 nM, cultured seven to 11 days; for inhibition at 1 µM: Homo sapiens, G-401, 264 h, read-out: % inhibition rate G401; for % inhibition rate G401: 1 µM
Procedure, shortened: (§3)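 Single 1000 nM dose of test substance, applied to cells seeded at 100–1,000 per well in 10% FBS medium, then culture for seven to 11 days. CCK-8 read-out; inhibition rate expressed as percent relative to untreated control.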

MKN-45 cells = assay: Cancer cell proliferation inhibition (Cell Counting Kit-8), gastric cancer cell line; type: cell-based; settings: Homo sapiens, MKN-45, 264 h, 1000 nM, cultured seven to 11 days; read-out: % inhibition rate MKN -45
Procedure, shortened: as §3

SW-13 cells = assay: Cancer cell proliferation inhibition (Cell Counting Kit-8), adrenal cancer cell line; type: cell-based; settings: Homo sapiens, SW13, 264 h, 1000 nM, cultured seven to 11 days; read-out: % inhibition rate SW-13
Procedure, shortened: as §2

MIA-PaCa-2 cells = assay: Cancer cell proliferation inhibition (Cell Counting Kit-8), pancreatic cancer cell line; type: cell-based; settings: Homo sapiens, MIA PaCa-2, 264 h, 1000 nM, cultured seven to 11 days; read-out: % inhibition rate MIA-Paca2
Procedure, shortened: as §2

NCI-H1299 cells = assay: Cancer cell proliferation inhibition (Cell Counting Kit-8), lung cancer cell line; type: cell-based; settings: Homo sapiens, NCI-H1299, 264 h, 1000 nM, cultured seven to 11 days; read-out: % inhibition rate NCI-H129 9
Procedure, shortened: as §2

EZH1, sequence (Q92800 whole entry, species assumed): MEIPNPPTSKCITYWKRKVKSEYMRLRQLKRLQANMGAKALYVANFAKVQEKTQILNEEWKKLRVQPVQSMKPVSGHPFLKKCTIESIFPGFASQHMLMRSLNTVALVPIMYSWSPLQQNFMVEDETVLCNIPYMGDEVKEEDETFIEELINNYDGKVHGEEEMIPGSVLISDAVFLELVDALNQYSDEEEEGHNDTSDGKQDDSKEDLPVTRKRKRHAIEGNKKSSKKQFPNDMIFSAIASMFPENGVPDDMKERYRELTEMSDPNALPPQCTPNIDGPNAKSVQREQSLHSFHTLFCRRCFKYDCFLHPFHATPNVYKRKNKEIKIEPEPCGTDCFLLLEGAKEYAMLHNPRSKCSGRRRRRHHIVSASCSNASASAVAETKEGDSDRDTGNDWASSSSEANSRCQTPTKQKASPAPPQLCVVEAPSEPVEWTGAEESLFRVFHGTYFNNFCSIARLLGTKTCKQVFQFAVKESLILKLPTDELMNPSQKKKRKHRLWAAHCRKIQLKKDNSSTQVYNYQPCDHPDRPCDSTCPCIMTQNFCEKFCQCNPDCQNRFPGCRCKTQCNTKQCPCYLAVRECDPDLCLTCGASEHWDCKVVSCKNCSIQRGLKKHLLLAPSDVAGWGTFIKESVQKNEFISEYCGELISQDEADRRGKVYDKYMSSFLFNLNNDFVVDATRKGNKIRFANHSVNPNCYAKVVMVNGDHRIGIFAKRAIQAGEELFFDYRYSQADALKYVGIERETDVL
EZH1, sequence (O75530 whole entry partner, species assumed): as the sequence (O75530 whole entry partner, species assumed) above
EZH1, sequence (Q15022 whole entry partner, species assumed): as the sequence (Q15022 whole entry partner, species assumed) above

| Compound | inhibition at 0.005 µM (EZH1) [%] | inhibition at 0.005 µM (EZH2) [%] | inhibition at 1 µM (Lovo cells) [%] | inhibition at 1 µM (G401 cells) [%] | inhibition at 1 µM (MKN-45 cells) [%] | inhibition at 1 µM (SW-13 cells) [%] | inhibition at 1 µM (MIA-PaCa-2 cells) [%] | inhibition at 1 µM (NCI-H1299 cells) [%] | inhibition at 0.01 µM (EZH1) [%] | inhibition at 0.01 µM (EZH2) [%] | % inhibition rate LoVo (Lovo cells) | % inhibition rate G401 (G401 cells) |
| --- | --- | --- | --- | --- | --- | --- | --- | --- | --- | --- | --- | --- |
| COCCN(C)[C@H]1CC[C@H](C2(C)Oc3c(-c4ccc(N5CCC(F)(F)CC5)nc4)cc(C(=O)NCc4c(SC)cc(C)[nH]c4=O)c(C)c3O2)CC1 (relative stereo) [Compound 27, 7-(6-(4,4-difluoropiperidin-1-yl)pyridin-3-yl)-2-(trans-4-((2-methoxyethyl)(methyl)amino)cyclohexyl)-2,4-dimethyl-N-((6-methyl-4-(methylthio)-2-oxo-1,2-dihydropyridin-3-yl)methyl)benzo[d][1,3]dioxole-5-carboxamide] | 80.2 | 95.8 | ≥ 70 | 30 to 70 | 30 to 70 | 30 to 70 | ≤ 30 | ≤ 30 |  |  |  |  |
| COCCN(C)[C@H]1CC[C@H](C2(C)Oc3c(-c4ccc(OC)nc4)cc(C(=O)NCc4c(SC)cc(C)[nH]c4=O)c(C)c3O2)CC1 (relative stereo) [Compound 28, 2-(trans-4-((2-methoxyethyl)(methyl)amino)cyclohexyl)-7-(6-methoxypyridin-3-yl)-2,4-dimethyl-N-((6-methyl-4-(methylthio)-2-oxo-1,2-dihydropyridin-3-yl)methyl)benzo[d][1,3]dioxole-5-carboxamide] | 77.3 | 99.4 | 30 to 70 | 30 to 70 | ≤ 30 | 30 to 70 | ≤ 30 | ≤ 30 |  |  |  |  |
| CSc1cc(C)[nH]c(=O)c1CNC(=O)c1cc(-c2ccc(N3C[C@@H](C)O[C@@H](C)C3)nc2)c2c(c1C)OC(C)(C1CCN(CC(F)(F)F)CC1)O2 (single isomer, unassigned) [Compound 44] | 46.8 | 96.1 |  |  | 30 to 70 | 30 to 70 | ≤ 30 | 30 to 70 | 78.2 | 99.6 | +++ (+++: ≥70%) | +++ (+++: ≥70%) |
| CSc1cc(C)[nH]c(=O)c1CNC(=O)c1cc(-c2ccc(N3C[C@@H](C)O[C@@H](C)C3)nc2)c2c(c1C)OC(C)(C1CCN(CC(F)F)CC1)O2 (single isomer, unassigned) [Compound 47] | 68.1 | 94.5 | ≥ 70 |  | 30 to 70 | 30 to 70 | ≤ 30 | 30 to 70 | 86.7 | 99.6 |  | +++ (+++: ≥70%) |
| CCN1CCC(C2(C)Oc3c(-c4ccc(N5C[C@@H](C)O[C@@H](C)C5)nc4)cc(C(=O)NCc4c(SC)cc(C)[nH]c4=O)c(C)c3O2)CC1 (single isomer, unassigned) [Compound 49] | 78.8 | 99.2 |  | 30 to 70 | ≤ 30 | 30 to 70 | ≤ 30 | 30 to 70 | 92.4 | 99.5 | +++ (+++: ≥70%) |  |
| CSc1cc(C)[nH]c(=O)c1CNC(=O)c1cc(-c2ccc(N3C[C@@H](C)O[C@@H](C)C3)nc2)c2c(c1C)OC(C)(C1CCN(C(C)C)CC1)O2 (single isomer, unassigned) [Compound 51] | 80.2 | 99.3 |  |  | ≤ 30 | 30 to 70 | ≤ 30 | 30 to 70 | 93 | 99.5 | +++ (+++: ≥70%) | +++ (+++: ≥70%) |
| CSc1cc(C)[nH]c(=O)c1CNC(=O)c1cc(-c2ccc(N3C[C@@H](C)O[C@@H](C)C3)nc2)c2c(c1C)OC(C)(C1CCN(C3CCCCC3)CC1)O2 (single isomer, unassigned) [Compound 53] | 78.3 | 98.5 |  |  | ≤ 30 | 30 to 70 | ≤ 30 | 30 to 70 | 91.6 | 99.6 | +++ (+++: ≥70%) | +++ (+++: ≥70%) |
| CSc1cc(C)[nH]c(=O)c1CNC(=O)c1cc(-c2ccc(N3C[C@@H](C)O[C@@H](C)C3)nc2)c2c(c1C)OC(C)(C1CCN(CCc3ccccc3)CC1)O2 (single isomer, unassigned) [Compound 55] | 31.6 | 58.2 | ≥ 70 |  | 30 to 70 | 30 to 70 | ≤ 30 | 30 to 70 | 52.2 | 93.3 |  | +++ (+++: ≥70%) |
| CSc1cc(C)[nH]c(=O)c1CNC(=O)c1cc(-c2ccc(N3C[C@@H](C)O[C@@H](C)C3)nc2)c2c(c1C)OC(C)(C1CCN(CCCC(F)(F)F)CC1)O2 (single isomer, unassigned) [Compound 57] | 58.9 | 96 |  |  | 30 to 70 | 30 to 70 | 30 to 70 | 30 to 70 | 76.2 | 99.4 | +++ (+++: ≥70%) | +++ (+++: ≥70%) |
| CSc1cc(C)[nH]c(=O)c1CNC(=O)c1cc(-c2ccc(N3C[C@@H](C)O[C@@H](C)C3)nc2)c2c(c1C)OC(C)(C1CCN(C(=O)C(F)(F)F)CC1)O2 (single isomer, unassigned) [Compound 59] | 42.2 | 98.5 | ≥ 70 |  | 30 to 70 | 30 to 70 | ≤ 30 | 30 to 70 | 5.7 | 99.5 |  | +++ (+++: ≥70%) |
| CSc1cc(C)[nH]c(=O)c1CNC(=O)c1cc(-c2ccc(N3CCOCC3)nc2)c2c(c1C)OC(C)(C1CCN(CC(F)(F)F)CC1)O2 (single isomer, unassigned) [Compound 62, 2,4-dimethyl-N-((6-methyl-4-(methylthio)-2-oxo-1,2-dihydropyridin-3-yl)methyl)-7-(6-morpholinopyridin-3-yl)-2-(1-(2,2,2-trifluoro)piperidin-4-yl)benzo[d][1,3]dioxole-5-carboxamide] | 66.9 | 93.6 |  |  | 30 to 70 | 30 to 70 | ≤ 30 | 30 to 70 | 81.8 | 99.4 | +++ (+++: ≥70%) | +++ (+++: ≥70%) |
| CSc1cc(C)[nH]c(=O)c1CNC(=O)c1cc(-c2ccc(N3CCOCC3)nc2)c2c(c1C)OC(C)(C1CCN(CC(F)F)CC1)O2 (single isomer, unassigned) [Compound 64, 2-(1-(2,2-difluoroethyl)piperidin-4-yl)-2,4-dimethyl-N-((6-methyl-4-(methylthio)-2-oxo-1,2-dihydropyridin-3-yl)methyl)-7-(6-morpholinopyridin-3-yl)benzo[d][1,3]dioxole-5-carboxamide] | 82.5 | 99.2 |  |  | 30 to 70 | 30 to 70 | ≤ 30 | ≤ 30 | 90.5 | 99.6 | +++ (+++: ≥70%) | +++ (+++: ≥70%) |
